Experimental findings from the Biogen ADME set (Fang et al. 2023) are described below.

The conditions of this series: for aqueous solubility: pH 6.8.

Values after ≈ are worked out from the molar mass of the structure shown.

Usually aqueous solubility stands for the dissolved amount per volume that the medium holds. Consider `COc1cccc(CN2CCN(C(=O)Cc3ccc(C)cc3)[C@@H](C)C2)c1`, for which the MDR1-MDCK efflux ratio was 0.739; the intrinsic clearance, human liver microsomes is 230 mL/min/kg; the intrinsic clearance, rat liver microsomes turned out to be 988 mL/min/kg; the aqueous solubility was found to be 44 µg/mL (≈ 125 µM).

Take `c1ccc(-n2cc(CNc3ncccn3)cn2)cc1`: the MDR1-MDCK efflux ratio was 0.497; the intrinsic clearance, human liver microsomes was 30.8 mL/min/kg; the intrinsic clearance, rat liver microsomes came to 181 mL/min/kg; the aqueous solubility turned out to be 41.1 µg/mL (≈ 164 µM).

For the compound `CCCNC(=O)C1(NCc2csnn2)CCCCC1`, the MDR1-MDCK efflux ratio came out at 2.87; the intrinsic clearance, human liver microsomes was found to be 7.42 mL/min/kg; the intrinsic clearance, rat liver microsomes amounted to 152 mL/min/kg.

Take `O=C(Nc1cccc(N2CCNC2=O)c1)C1NCC12CCCC2` (stereo not drawn): the MDR1-MDCK efflux ratio turned out to be 22; the fraction unbound, human plasma was determined as 0.523; the intrinsic clearance, human liver microsomes was not above 4.74 mL/min/kg.

On to `CN1CCC[C@@H]1CCO[C@](C)(c1ccccc1)c1ccc(Cl)cc1`, for which the intrinsic clearance, human liver microsomes is 24.8 mL/min/kg; the intrinsic clearance, rat liver microsomes was 1090 mL/min/kg; the aqueous solubility was found to be 98.7 µg/mL (≈ 287 µM).

In the case of `CNC(=O)c1cccc(NC(=O)N2CCC(Oc3ccccc3Cl)CC2)c1`, the MDR1-MDCK efflux ratio was 20; the fraction unbound, human plasma is 0.117; the intrinsic clearance, human liver microsomes was 6.6 mL/min/kg; the intrinsic clearance, rat liver microsomes stood at 223 mL/min/kg. In addition, the aqueous solubility was found to be 68.8 µg/mL (≈ 177 µM).

Take `CCCNC(=O)c1ccnc(N(C)C)c1`: the MDR1-MDCK efflux ratio was 0.616; the intrinsic clearance, human liver microsomes came to 39 mL/min/kg; the intrinsic clearance, rat liver microsomes is 83.5 mL/min/kg; the aqueous solubility stood at 38.1 µg/mL (≈ 184 µM).

Turning to `Cc1sc2ncnc(OCC(=O)Nc3ccc4c(c3)OCO4)c2c1C`, the MDR1-MDCK efflux ratio turned out to be 0.986 and the aqueous solubility is 0.26 µg/mL (≈ 0.727 µM).

As for `CC(=O)NC1(C(=O)N2CCCN(C3CC3)CC2)CCC(C)CC1` (stereo not drawn), the MDR1-MDCK efflux ratio worked out at 37.7; the intrinsic clearance, human liver microsomes worked out at 27.7 mL/min/kg; the intrinsic clearance, rat liver microsomes came out at 80.8 mL/min/kg; the aqueous solubility was determined as 53.8 µg/mL (≈ 167 µM).

In the case of `Cc1cc2c(s1)c1cnn(Cc3ccccc3F)c(=O)c1n2C`, the intrinsic clearance, human liver microsomes came to 326 mL/min/kg and the intrinsic clearance, rat liver microsomes came out at 2650 mL/min/kg.

As for `Cc1nc(Cl)cc(Nc2ccc3c(c2)N(C)C(=O)CO3)n1`, the MDR1-MDCK efflux ratio worked out at 0.746; the intrinsic clearance, human liver microsomes stood at 34.6 mL/min/kg; the intrinsic clearance, rat liver microsomes was 63.2 mL/min/kg; the aqueous solubility is 30 µg/mL (≈ 98.5 µM).

Take `Cn1ccc(CN2C(=O)c3ccccc3C2=O)cc1=O`: the MDR1-MDCK efflux ratio was determined as 1.9; the intrinsic clearance, human liver microsomes is not above 4.74 mL/min/kg; the intrinsic clearance, rat liver microsomes stood at 12.1 mL/min/kg; the aqueous solubility was found to be 50 µg/mL (≈ 187 µM).

In the case of `O=C(Nc1ccc(N2CCOCC2)nc1)N1CCc2sccc2C1`, the MDR1-MDCK efflux ratio stood at 1.91; the intrinsic clearance, human liver microsomes stood at 8.76 mL/min/kg; the intrinsic clearance, rat liver microsomes amounted to 109 mL/min/kg; the aqueous solubility stood at 25.8 µg/mL (≈ 74.8 µM).

In the case of `c1ccc(C(c2ccccc2)c2noc(Cn3cnc(C4CC4)n3)n2)cc1`, the MDR1-MDCK efflux ratio was found to be 1.14; the intrinsic clearance, human liver microsomes was 38 mL/min/kg; the intrinsic clearance, rat liver microsomes was 1510 mL/min/kg; the aqueous solubility is 26.3 µg/mL (≈ 73.6 µM).

In turn, `Cc1nc(C2CCN(CC(N)=O)CC2)no1` registered an intrinsic clearance, human liver microsomes not above 4.74 mL/min/kg; an intrinsic clearance, rat liver microsomes not above 10.7 mL/min/kg; an aqueous solubility of 61.4 µg/mL (≈ 274 µM).

On to `Cc1cc(C(=O)Nc2cccc3ncccc23)on1`, for which the MDR1-MDCK efflux ratio amounted to 0.559; the intrinsic clearance, human liver microsomes was not above 4.74 mL/min/kg; the intrinsic clearance, rat liver microsomes was determined as 11.1 mL/min/kg; the aqueous solubility turned out to be 45.4 µg/mL (≈ 179 µM).

Turning to `Cc1nc(C2CCNCC2)cc(N(C)C)n1`, the MDR1-MDCK efflux ratio was 4.51; the intrinsic clearance, human liver microsomes was not above 4.74 mL/min/kg; the intrinsic clearance, rat liver microsomes is not above 10.7 mL/min/kg; the aqueous solubility stood at 38.5 µg/mL (≈ 175 µM).

For the compound `Nc1ccnc2ccc(Oc3ccccc3)cc12`, the MDR1-MDCK efflux ratio came to 0.486; the intrinsic clearance, human liver microsomes stood at 13.5 mL/min/kg; the intrinsic clearance, rat liver microsomes was determined as 2330 mL/min/kg.

As for `Cc1cccc2sc(NC(=O)C(C)(C)C)nc12`, the MDR1-MDCK efflux ratio was 0.352; the intrinsic clearance, human liver microsomes was 36.5 mL/min/kg; the intrinsic clearance, rat liver microsomes was found to be 207 mL/min/kg; the aqueous solubility amounted to 22.6 µg/mL (≈ 91.1 µM).

For `CC(=O)c1ccc(OCCCCN2CCCC2)cc1`, the MDR1-MDCK efflux ratio is 0.895; the intrinsic clearance, human liver microsomes was not above 4.74 mL/min/kg; the intrinsic clearance, rat liver microsomes stood at 453 mL/min/kg; the aqueous solubility amounted to 36.3 µg/mL (≈ 139 µM).

`COc1cccc(CNC(=O)C2(C#N)CCOCC2)c1` displayed an intrinsic clearance, human liver microsomes not above 4.74 mL/min/kg and an intrinsic clearance, rat liver microsomes of 75.9 mL/min/kg.

With `N[C@H](Cc1c[nH]c2ccccc12)C(=O)N/N=C/c1ccc2nccnc2c1`, the MDR1-MDCK efflux ratio worked out at 13.4; the intrinsic clearance, human liver microsomes is 17.2 mL/min/kg; the intrinsic clearance, rat liver microsomes stood at 55.8 mL/min/kg; the aqueous solubility worked out at 40.3 µg/mL (≈ 112 µM).

For `O=C(CCC1CCOCC1)Nc1ccc(C(=O)O)cc1`, the intrinsic clearance, human liver microsomes is not above 4.74 mL/min/kg and the intrinsic clearance, rat liver microsomes is not above 10.7 mL/min/kg.

Consider `Cc1cc(C)c(S(=O)(=O)Nc2ccc(N(C)C)cc2)c(C)c1-n1cnnn1`, for which the MDR1-MDCK efflux ratio was 9.73; the intrinsic clearance, human liver microsomes was 118 mL/min/kg; the intrinsic clearance, rat liver microsomes came to 89.2 mL/min/kg; the aqueous solubility turned out to be 2.73 µg/mL (≈ 7.06 µM).

Consider `O=C1Nc2ccc(Cl)cc2[C@@](C#CC2CC2)(C(F)(F)F)O1`, for which the aqueous solubility worked out at 15.3 µg/mL (≈ 48.4 µM).

Turning to `O=C(NC1CCN(c2ccc(OC(F)(F)F)cc2)CC1)N1CCC1`, the MDR1-MDCK efflux ratio came out at 0.716; the intrinsic clearance, human liver microsomes is not above 4.74 mL/min/kg; the intrinsic clearance, rat liver microsomes turned out to be 26.4 mL/min/kg; the aqueous solubility is 57 µg/mL (≈ 166 µM).

As for `COc1cccc(-c2nc(C(=O)O)cs2)c1OC`, the MDR1-MDCK efflux ratio turned out to be 0.916; the intrinsic clearance, human liver microsomes was not above 4.74 mL/min/kg; the intrinsic clearance, rat liver microsomes is not above 10.7 mL/min/kg; the aqueous solubility came out at 37.7 µg/mL (≈ 142 µM).

For `Cc1nc2ccccc2c(N)c1C(=O)/C=C/c1ccccc1`, the MDR1-MDCK efflux ratio worked out at 0.244; the intrinsic clearance, human liver microsomes was found to be 50 mL/min/kg; the intrinsic clearance, rat liver microsomes came out at 922 mL/min/kg; the aqueous solubility came out at 41.4 µg/mL (≈ 144 µM).

For `COCc1ccccc1CNc1ccc2nnc(-c3ccccc3)n2n1`, the MDR1-MDCK efflux ratio worked out at 9.33; the intrinsic clearance, human liver microsomes was found to be 101 mL/min/kg; the intrinsic clearance, rat liver microsomes is 417 mL/min/kg; the aqueous solubility was found to be 2.8 µg/mL (≈ 8.11 µM).

Compound `COc1ccc(Nc2nc(Cl)cc(Cl)n2)cc1` displayed an intrinsic clearance, human liver microsomes of 188 mL/min/kg and an intrinsic clearance, rat liver microsomes of 170 mL/min/kg.

`CN(C)S(=O)(=O)N(C1CCCC1)C1CC1` displayed an aqueous solubility of 32.6 µg/mL (≈ 140 µM).

On to `O=C(Nc1nnc(SCc2ccc(F)cc2)s1)C1CCC1`, for which the MDR1-MDCK efflux ratio amounted to 0.689; the intrinsic clearance, human liver microsomes came to 52 mL/min/kg; the intrinsic clearance, rat liver microsomes is 1650 mL/min/kg.

`CCONC(=O)Cc1coc2c(C)c(C)ccc12`: the intrinsic clearance, human liver microsomes was 89.7 mL/min/kg; the intrinsic clearance, rat liver microsomes came to 1060 mL/min/kg; the aqueous solubility stood at 34.2 µg/mL (≈ 138 µM).

In turn, `COc1ccc(Cc2nnn[nH]2)cc1F` showed an intrinsic clearance, human liver microsomes not above 4.74 mL/min/kg and an intrinsic clearance, rat liver microsomes not above 10.7 mL/min/kg.

Turning to `C=CC(=O)N1CCC(CNc2ncnc(N)c2-c2ccc(Oc3ccccc3)cc2)CC1`, the MDR1-MDCK efflux ratio was found to be 24.7; the fraction unbound, human plasma came out at 0.0566; the fraction unbound, rat plasma is 0.0797; the intrinsic clearance, human liver microsomes is 191 mL/min/kg. This compound showed an intrinsic clearance, rat liver microsomes of 1450 mL/min/kg and an aqueous solubility of 10.1 µg/mL (≈ 23.5 µM).

Consider `C#CCNC(=O)N(Cc1ccccc1F)C1CCOCC1`, for which the MDR1-MDCK efflux ratio is 2.15; the intrinsic clearance, human liver microsomes was not above 4.74 mL/min/kg; the intrinsic clearance, rat liver microsomes stood at 35.5 mL/min/kg.

The compound `N#Cc1cc(N2CC(CO)C2)nc2ccc(Cl)cc12` returned an intrinsic clearance, human liver microsomes of 68.9 mL/min/kg and an intrinsic clearance, rat liver microsomes of 121 mL/min/kg.

For the compound `Cc1ccc(C)c2nc3c(cc12)CNCCO3`, the MDR1-MDCK efflux ratio was 0.525; the intrinsic clearance, human liver microsomes turned out to be 23.7 mL/min/kg; the intrinsic clearance, rat liver microsomes stood at 234 mL/min/kg.

`COCCc1n[nH]c(-c2ccc(N3CCN(C)CC3)cc2)n1`: the MDR1-MDCK efflux ratio is 7.53; the intrinsic clearance, human liver microsomes was not above 4.74 mL/min/kg; the intrinsic clearance, rat liver microsomes amounted to 50 mL/min/kg.

The compound `O=C(C1CCCN(C(=O)N2CCCC2)C1)N1CCc2ccccc2C1` (stereo not drawn) displayed an intrinsic clearance, human liver microsomes of 87.1 mL/min/kg; an intrinsic clearance, rat liver microsomes of 1010 mL/min/kg; an aqueous solubility of 57.4 µg/mL (≈ 168 µM).

Consider `CC(=O)NCC1CCN(C(=O)c2cncn2-c2ccc(F)cc2)CC1`, for which the MDR1-MDCK efflux ratio was found to be 59.5; the intrinsic clearance, human liver microsomes is not above 4.74 mL/min/kg; the intrinsic clearance, rat liver microsomes stood at 29.3 mL/min/kg; the aqueous solubility is 46.3 µg/mL (≈ 134 µM).

As to `C=CC(=O)Nc1cccc(Nc2nc(Nc3ccc(OCCOC)cc3)ncc2F)c1`, the MDR1-MDCK efflux ratio worked out at 3.94; the intrinsic clearance, human liver microsomes was 32.1 mL/min/kg; the intrinsic clearance, rat liver microsomes is 391 mL/min/kg; the aqueous solubility is 3.8 µg/mL (≈ 8.97 µM).

In turn, `Cc1ccc(S(=O)(=O)Nc2ccc3c(c2)CCCN3C(=O)c2cccs2)cc1C` displayed an intrinsic clearance, human liver microsomes of 364 mL/min/kg and an intrinsic clearance, rat liver microsomes of 2380 mL/min/kg.

As for `Cc1nc(Nc2nccs2)cc(C2CN(c3ncccn3)C2)n1`, the MDR1-MDCK efflux ratio stood at 1.45; the fraction unbound, human plasma is 0.0278; the fraction unbound, rat plasma was found to be 0.0237; the intrinsic clearance, human liver microsomes was 30.3 mL/min/kg. The intrinsic clearance, rat liver microsomes worked out at 74.2 mL/min/kg.

Consider `COc1cc2nc(-c3cc(F)ccc3O)nc(N[C@@H]3CNC[C@H]3C(C)(C)O)c2cc1OC.Cl`, for which the fraction unbound, human plasma was found to be 0.00076 and the fraction unbound, rat plasma was found to be 0.0015.

For `Cc1nc2cc(NC(=O)CCc3c(C)noc3C)ccc2o1`, the MDR1-MDCK efflux ratio stood at 4.62; the intrinsic clearance, human liver microsomes was not above 4.74 mL/min/kg; the intrinsic clearance, rat liver microsomes is 78.5 mL/min/kg; the aqueous solubility worked out at 39.1 µg/mL (≈ 131 µM).
